The source made the active and inactive calls.
Tests used:
Aminopeptidase N = biological target: T1, Aminopeptidase N (Plasmodium falciparum FcB1/Columbia, UniProt O96935); assay: malaria alanyl aminopeptidase activity blockers – biochemical, fluorogenic H-Leu-NHMec substrate, 1536-well (AID 1445); design: species or system Plasmodium falciparum 3D7, 3D7
T1 sequence (O96935 whole entry): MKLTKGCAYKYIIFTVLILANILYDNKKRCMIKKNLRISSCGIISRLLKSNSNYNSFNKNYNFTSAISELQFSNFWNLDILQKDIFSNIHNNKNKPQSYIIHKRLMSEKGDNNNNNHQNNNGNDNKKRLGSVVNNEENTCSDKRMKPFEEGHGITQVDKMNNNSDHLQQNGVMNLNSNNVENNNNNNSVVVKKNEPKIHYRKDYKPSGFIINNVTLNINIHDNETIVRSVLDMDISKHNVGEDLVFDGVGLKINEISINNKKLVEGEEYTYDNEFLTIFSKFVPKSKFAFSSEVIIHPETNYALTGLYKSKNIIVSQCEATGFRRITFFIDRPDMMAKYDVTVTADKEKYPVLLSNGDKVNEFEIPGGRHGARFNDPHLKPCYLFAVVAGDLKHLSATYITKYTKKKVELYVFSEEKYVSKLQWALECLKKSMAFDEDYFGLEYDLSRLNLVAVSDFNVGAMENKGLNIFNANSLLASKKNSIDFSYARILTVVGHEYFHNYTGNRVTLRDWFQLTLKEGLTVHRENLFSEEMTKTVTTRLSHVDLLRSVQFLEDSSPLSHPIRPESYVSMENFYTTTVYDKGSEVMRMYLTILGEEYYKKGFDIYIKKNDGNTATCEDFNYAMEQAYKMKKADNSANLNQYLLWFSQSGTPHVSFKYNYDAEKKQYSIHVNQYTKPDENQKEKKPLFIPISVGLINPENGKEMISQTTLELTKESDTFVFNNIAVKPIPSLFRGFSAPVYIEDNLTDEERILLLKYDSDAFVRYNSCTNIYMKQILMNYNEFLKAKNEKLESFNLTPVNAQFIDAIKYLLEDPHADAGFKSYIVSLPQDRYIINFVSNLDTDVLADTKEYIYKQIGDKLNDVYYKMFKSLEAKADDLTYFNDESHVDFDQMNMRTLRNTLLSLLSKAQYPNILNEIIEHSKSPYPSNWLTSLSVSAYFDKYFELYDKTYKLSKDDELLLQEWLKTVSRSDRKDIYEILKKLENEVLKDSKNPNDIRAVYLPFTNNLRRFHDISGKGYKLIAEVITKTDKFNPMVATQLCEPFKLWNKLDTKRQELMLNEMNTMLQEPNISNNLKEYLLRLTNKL

Genome polyprotein = Genome polyprotein (dengue virus type 2, UniProt P29990); assay: flavivirus cap methylation enzyme inhibition – biochemical, confirmation dose response, primary screen (AID 588689); type: functional
Genome polyprotein, sequence (P29990 2492-3391 limits assumed): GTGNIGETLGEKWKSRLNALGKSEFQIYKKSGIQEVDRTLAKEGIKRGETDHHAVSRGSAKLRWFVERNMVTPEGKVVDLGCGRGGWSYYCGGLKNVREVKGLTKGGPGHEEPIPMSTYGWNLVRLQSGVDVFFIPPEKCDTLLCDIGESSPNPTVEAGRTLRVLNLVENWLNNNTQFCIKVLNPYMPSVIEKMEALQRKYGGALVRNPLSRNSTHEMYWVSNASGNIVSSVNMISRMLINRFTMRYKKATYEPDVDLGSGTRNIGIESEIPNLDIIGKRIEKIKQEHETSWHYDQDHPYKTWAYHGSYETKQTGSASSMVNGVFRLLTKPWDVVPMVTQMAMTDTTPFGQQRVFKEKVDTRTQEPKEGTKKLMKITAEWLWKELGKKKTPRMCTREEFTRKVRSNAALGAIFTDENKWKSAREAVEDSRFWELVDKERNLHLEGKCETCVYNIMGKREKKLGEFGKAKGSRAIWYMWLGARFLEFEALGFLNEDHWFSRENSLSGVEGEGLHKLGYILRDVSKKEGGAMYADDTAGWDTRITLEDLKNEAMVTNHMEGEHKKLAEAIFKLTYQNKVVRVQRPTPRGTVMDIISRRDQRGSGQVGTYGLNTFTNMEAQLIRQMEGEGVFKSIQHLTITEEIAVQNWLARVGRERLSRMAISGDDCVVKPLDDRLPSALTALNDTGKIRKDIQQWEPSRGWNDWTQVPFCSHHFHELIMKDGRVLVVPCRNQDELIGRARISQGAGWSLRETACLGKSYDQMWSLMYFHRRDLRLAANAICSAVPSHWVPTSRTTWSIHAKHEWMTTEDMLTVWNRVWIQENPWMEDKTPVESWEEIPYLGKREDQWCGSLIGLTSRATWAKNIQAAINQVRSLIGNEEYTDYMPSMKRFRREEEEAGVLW

[1] = biological target: T2, High affinity choline transporter 1 (Homo sapiens, UniProt Q9GZV3); assay: human choline transporter blockers, potency – cell-based, 5-point CRC, membrane potential dye, dose response (AID 504840); type: functional
T2 sequence (Q9GZV3 whole entry): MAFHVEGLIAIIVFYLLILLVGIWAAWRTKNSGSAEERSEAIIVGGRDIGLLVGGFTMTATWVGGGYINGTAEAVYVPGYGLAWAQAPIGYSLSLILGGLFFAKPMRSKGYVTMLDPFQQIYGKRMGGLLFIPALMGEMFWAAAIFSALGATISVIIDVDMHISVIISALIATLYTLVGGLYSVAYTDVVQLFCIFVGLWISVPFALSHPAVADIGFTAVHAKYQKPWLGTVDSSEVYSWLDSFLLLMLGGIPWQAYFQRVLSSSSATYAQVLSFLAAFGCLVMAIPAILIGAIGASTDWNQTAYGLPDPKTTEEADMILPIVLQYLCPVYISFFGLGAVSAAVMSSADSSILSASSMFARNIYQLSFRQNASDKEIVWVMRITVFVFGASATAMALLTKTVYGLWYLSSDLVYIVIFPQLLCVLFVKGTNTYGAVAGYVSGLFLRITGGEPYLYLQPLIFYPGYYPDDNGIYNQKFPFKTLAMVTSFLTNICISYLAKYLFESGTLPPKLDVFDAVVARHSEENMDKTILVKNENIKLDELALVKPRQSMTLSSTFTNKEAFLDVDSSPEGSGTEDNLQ

Cytochrome P450 3A4 = Cytochrome P450 3A4 (Homo sapiens, UniProt P08684); conditions: Potency;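 also: confirmatory qHTS run detecting inhibitors and substrates of CYP3A4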
Cytochrome P450 3A4, sequence (P08684 whole entry, the tested form may be a part): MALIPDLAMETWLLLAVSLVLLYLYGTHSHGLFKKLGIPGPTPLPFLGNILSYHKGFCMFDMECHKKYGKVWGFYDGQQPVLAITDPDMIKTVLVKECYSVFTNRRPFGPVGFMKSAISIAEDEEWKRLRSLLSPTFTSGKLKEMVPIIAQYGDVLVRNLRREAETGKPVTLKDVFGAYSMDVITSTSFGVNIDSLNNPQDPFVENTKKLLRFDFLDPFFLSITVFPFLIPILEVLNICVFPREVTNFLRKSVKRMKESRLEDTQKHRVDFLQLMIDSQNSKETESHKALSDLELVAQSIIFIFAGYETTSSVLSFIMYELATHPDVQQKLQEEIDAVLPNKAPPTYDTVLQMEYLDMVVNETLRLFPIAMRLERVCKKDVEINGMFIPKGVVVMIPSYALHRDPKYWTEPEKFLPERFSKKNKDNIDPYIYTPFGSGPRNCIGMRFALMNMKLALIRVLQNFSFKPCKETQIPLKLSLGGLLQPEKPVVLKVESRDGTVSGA

[2] = biological target: T3, Carboxy-terminal domain RNA polymerase II polypeptide A small phosphatase 1 (Homo sapiens, UniProt Q9GZU7); assay: CTDSP1 inhibitors, concentration-response, biochemical, absorbance readout, ultra-high-throughput screen actives (AID 540297); type: functional
T3 sequence (Q9GZU7 whole entry): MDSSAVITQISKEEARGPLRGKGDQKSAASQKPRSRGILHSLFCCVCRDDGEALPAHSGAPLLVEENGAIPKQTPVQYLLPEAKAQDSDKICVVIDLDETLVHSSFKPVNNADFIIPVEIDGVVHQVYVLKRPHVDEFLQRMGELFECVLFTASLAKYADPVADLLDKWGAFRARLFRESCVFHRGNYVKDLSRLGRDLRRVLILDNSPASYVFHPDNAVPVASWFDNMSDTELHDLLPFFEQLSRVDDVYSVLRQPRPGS

[3] = biological target: Induced myeloid leukemia cell differentiation protein Mcl-1 (Homo sapiens, UniProt Q07820); type: functional
Induced myeloid leukemia cell differentiation protein Mcl-1, sequence (Q07820 whole entry): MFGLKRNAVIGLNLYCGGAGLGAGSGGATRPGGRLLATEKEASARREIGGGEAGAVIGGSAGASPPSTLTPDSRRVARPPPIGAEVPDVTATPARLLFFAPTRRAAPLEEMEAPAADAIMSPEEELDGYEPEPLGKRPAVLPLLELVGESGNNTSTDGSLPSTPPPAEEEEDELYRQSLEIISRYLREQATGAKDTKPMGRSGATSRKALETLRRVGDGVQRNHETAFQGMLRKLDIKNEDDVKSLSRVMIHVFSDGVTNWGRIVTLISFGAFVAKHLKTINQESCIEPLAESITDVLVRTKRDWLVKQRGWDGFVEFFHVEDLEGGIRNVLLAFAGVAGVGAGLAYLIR

[4] = blockers of bursicon-stimulated LGR2 cAMP reporter – cell-based, HEK293, CRE-luciferase reporter, cherry pick, set 2, dose response (AID 743343); type: functional;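 also: transfected cells were stimulated with diluted bursicon conditioned medium after compound addition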
[5] = biological target: T4, Short transient receptor potential channel 4 (Mus musculus, UniProt Q9QUQ5); assay: calcium entry via TRPC4 opening agents – cell-based, HEK293 TRPC4/mu-opioid, Fluo-4 calcium, dose response (AID 434937); type: functional
T4 sequence (Q9QUQ5 whole entry): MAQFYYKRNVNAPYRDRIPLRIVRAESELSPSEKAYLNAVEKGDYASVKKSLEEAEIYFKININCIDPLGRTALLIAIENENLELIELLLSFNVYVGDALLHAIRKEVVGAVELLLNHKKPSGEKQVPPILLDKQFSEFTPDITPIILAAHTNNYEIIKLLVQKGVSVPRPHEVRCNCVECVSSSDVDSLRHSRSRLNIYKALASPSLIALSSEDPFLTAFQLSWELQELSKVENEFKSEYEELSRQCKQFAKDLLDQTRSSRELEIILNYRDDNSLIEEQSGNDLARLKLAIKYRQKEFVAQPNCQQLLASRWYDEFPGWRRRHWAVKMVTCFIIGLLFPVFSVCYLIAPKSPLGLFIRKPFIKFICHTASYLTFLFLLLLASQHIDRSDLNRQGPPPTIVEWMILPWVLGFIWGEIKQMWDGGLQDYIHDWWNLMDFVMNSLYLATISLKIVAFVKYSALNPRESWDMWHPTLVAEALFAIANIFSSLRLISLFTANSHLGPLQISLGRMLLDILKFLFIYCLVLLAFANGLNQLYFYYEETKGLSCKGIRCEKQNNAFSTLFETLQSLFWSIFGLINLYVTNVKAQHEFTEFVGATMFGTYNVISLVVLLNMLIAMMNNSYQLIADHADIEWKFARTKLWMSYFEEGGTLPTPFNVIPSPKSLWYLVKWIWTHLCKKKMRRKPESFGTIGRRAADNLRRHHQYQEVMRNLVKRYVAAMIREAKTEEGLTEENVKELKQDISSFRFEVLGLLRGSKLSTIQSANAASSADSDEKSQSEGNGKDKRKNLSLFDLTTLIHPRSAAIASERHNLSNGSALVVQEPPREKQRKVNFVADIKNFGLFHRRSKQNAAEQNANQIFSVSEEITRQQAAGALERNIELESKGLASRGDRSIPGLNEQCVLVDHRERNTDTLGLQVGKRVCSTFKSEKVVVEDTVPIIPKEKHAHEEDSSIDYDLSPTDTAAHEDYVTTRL

Streptococcus = assay: GAS UMAA2166 growth inhibition – luminescence, BacTiterGlo, counter-screen for streptokinase expression inhibitor project, dose response (AID 1915); type: functional, organism-based;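 also: potency for reduction of bacterial viability or growth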
[6] = system: Streptococcus sp. 'group A'; assay: Streptococcus pyogenes SK(-)GAS viability under kanamycin – luminescence, BacTiterGlo, confirmation, counter-screen for streptokinase expression inhibitor project, dose response (AID 1900); type: functional, organism-based
[7] = OVCAR8 cell viability loss – plate reader, dry powder samples, PAX8 project, dose response (AID 743197); type: functional, cell-based; conditions: OVCAR-8
Paired box protein Pax-8 = Paired box protein Pax-8 (Homo sapiens, UniProt Q06710); assay: PAX8 transcriptional activity inhibition in RMG-I – RMG-I cells, luciferase, cherry-pick, dose response (AID 687027); type: functional, cell-based;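 also: luciferase reporter driven by Pax8 target thyroperoxidase promoter measured by SteadyGlo luminescence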
Paired box protein Pax-8, sequence (Q06710 whole entry): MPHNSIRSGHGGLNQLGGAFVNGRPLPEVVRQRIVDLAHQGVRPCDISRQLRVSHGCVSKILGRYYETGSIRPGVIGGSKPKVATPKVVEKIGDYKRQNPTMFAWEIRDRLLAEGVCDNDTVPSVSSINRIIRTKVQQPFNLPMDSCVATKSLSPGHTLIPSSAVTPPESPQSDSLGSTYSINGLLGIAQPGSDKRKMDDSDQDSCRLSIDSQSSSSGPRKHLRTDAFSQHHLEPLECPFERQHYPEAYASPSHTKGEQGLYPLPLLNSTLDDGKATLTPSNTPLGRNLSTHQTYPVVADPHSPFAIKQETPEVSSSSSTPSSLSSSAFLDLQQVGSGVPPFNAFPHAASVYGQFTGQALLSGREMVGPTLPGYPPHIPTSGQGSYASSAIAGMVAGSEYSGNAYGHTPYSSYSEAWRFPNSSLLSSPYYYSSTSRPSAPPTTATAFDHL

[8] = OVCAR-3 cell viability loss – plate reader, dry powder samples, PAX8 inhibitor project, dose response (AID 743044); type: functional, cell-based
[9] = HepG2 cell cytotoxicity, dose response, cytotoxicity control for non-replicating M. tuberculosis project (AID 489018); type: functional; conditions: Mycobacterium tuberculosis
INS1 = assay: INS-1E survival protection against cytokine death – cell-based, luminescence, retest, dose response (AID 449756); type: functional; conditions: Rattus norvegicus;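 also: cell death triggered by IL-1 beta plus TNF-alpha plus IFN-gamma mixture; protective hits raise ATP signal compared with cytokine alone wells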
cells [10] = type: functional
[11] = THP-1 cell cytotoxicity, dose response, cytotoxicity control for non-replicating M. tuberculosis project (AID 489025); type: functional
cells [12] = type: functional, cell-based
[13] = Vero E6 cell cytotoxicity, dose response, cytotoxicity control for non-replicating M. tuberculosis project, secondary assay (AID 492998); type: functional, VeroE6; conditions: Vero C1008
cells [14] = type: functional, cell-based; remark: listed apart in the source
Fatty acid synthase [15] = biological target: T5, Fatty acid synthase (Homo sapiens, UniProt P49327); assay: inhibition of human FAS-TE enzyme activity – biochemical, kinetic fluorescence intensity, dose response (AID 624326); type: functional;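 also: rate of fluorescence rise from hydrolysis of a fluorogenic O-methyl fluorescein ester substrate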
T5 sequence (P49327 whole entry): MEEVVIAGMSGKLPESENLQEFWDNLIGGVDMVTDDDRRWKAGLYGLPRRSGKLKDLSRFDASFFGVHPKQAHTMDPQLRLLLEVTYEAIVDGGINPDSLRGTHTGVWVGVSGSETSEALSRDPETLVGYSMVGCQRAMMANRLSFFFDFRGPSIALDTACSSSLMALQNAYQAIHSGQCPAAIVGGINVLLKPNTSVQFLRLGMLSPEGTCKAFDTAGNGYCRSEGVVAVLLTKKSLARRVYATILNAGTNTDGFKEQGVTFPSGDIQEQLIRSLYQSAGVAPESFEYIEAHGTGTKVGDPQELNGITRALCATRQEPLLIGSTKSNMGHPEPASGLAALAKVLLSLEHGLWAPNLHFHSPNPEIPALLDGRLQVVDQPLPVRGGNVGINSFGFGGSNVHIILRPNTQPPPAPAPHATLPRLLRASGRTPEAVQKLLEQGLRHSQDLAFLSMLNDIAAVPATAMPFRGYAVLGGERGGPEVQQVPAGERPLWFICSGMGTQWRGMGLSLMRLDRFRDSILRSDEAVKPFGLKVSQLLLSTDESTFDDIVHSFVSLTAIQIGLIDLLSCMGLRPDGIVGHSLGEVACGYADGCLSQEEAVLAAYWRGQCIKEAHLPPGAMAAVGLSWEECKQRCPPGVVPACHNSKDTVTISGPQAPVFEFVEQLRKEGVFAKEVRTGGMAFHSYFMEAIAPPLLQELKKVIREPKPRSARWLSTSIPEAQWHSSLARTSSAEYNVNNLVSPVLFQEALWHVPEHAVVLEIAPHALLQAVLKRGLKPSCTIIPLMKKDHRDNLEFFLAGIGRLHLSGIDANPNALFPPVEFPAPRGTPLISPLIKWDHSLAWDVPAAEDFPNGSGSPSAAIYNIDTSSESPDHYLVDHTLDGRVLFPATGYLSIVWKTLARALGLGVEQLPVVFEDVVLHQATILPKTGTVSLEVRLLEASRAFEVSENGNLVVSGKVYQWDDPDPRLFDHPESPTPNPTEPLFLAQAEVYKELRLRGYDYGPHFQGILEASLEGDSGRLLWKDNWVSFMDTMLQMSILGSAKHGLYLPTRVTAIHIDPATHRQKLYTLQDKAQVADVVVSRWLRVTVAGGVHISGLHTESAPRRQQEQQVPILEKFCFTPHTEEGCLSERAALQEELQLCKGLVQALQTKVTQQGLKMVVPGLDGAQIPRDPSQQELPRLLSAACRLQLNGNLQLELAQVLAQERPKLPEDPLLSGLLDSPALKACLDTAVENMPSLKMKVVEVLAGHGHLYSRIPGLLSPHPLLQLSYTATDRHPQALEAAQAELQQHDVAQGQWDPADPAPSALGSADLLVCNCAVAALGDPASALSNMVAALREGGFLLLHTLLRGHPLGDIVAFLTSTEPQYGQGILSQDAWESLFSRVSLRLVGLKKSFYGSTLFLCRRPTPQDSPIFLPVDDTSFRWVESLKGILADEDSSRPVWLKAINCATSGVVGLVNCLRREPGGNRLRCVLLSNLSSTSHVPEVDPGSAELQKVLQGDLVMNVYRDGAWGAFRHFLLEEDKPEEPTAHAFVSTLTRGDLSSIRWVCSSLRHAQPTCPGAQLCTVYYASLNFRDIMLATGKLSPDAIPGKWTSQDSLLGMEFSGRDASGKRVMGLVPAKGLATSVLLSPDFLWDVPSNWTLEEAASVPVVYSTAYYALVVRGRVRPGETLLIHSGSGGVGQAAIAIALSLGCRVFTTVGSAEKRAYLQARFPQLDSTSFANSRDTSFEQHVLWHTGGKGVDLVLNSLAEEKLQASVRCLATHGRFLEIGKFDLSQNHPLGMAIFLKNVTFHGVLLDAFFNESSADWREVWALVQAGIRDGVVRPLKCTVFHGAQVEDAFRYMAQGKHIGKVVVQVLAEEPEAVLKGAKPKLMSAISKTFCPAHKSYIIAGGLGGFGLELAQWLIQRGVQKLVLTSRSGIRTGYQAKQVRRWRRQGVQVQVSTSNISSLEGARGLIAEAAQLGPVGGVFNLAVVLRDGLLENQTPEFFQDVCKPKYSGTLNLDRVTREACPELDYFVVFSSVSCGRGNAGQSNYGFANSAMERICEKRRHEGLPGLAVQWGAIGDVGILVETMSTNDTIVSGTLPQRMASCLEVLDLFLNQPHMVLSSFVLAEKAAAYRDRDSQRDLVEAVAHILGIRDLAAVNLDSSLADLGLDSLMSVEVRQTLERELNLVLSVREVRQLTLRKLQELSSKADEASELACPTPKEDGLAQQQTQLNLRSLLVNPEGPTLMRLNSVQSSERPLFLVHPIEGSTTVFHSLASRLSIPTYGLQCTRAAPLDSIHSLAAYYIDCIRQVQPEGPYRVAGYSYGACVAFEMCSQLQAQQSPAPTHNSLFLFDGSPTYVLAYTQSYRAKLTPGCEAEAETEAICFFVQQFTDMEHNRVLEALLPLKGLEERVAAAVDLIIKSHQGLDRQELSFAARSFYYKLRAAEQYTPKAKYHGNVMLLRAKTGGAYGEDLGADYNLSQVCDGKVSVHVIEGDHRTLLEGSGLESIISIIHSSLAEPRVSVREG

Nonstructural protein 1 = Nonstructural protein 1 (Influenza A virus, UniProt Q194T2); type: functional, Influenza A virus (A/California/07/2009(H1N1))
Nonstructural protein 1, sequence (Q194T2 whole entry): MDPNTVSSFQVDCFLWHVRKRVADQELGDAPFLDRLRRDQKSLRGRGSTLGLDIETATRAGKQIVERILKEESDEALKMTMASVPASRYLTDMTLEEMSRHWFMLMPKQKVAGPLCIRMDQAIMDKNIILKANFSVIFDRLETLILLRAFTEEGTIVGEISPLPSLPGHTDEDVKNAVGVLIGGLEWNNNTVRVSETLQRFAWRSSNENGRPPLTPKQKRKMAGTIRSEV

Fatty acid synthase [16] = biological target: T5, Fatty acid synthase; assay: inhibition of human FAS-TE enzyme activity – biochemical, endpoint fluorescence intensity, uHTS hits, dose response (AID 624327); type: functional;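 also: fluorescence from hydrolysis of an O-methyl fluorescein acyl ester substrate by the enzyme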

## Cc1ccc(/C=C2\SC(NS(=O)(=O)c3cccs3)=NC2=O)cc1
Aminopeptidase N
  IC50: 33.1 µM (active)
Genome polyprotein
  IC50: 71.5 µM (active)

## Cc1ccc(-n2cc(CN3CCN(Cc4nccn4C)CC3)c(-c3cccc(C)c3)n2)cc1
[1]
  IC50: 10.5 µM (active)

## CCCn1c(C)nc2c(N(CCOC)CCOC)nc(C)nc21
Cytochrome P450 3A4
  AC50: 15.8 µM (inconclusive)

## Cc1cc(NS(=O)(=O)c2ccc(NC(=O)CSc3nc(O)c4c(C)c(C)sc4n3)cc2)no1
Aminopeptidase N
  IC50: 35.8 µM (active)
Genome polyprotein
  IC50: 81.9 µM (active)

## COCCNC(=O)C1(CC(C)C)C=CCN1C(=O)c1ccccc1 (stereo unspecified)
Cytochrome P450 3A4
  AC50: 20 µM (inconclusive)

## CCCOc1ccc(C(CC(=O)O)NC(=O)c2sc3ccccc3c2Cl)cc1 (stereo unspecified)
[1]
  IC50: 7.59 µM (active)

## O=C(CN1C(=O)S/C(=C\c2cccc(Cl)c2)C1=O)NCCCn1ccnc1
[1]
  IC50: 20.9 µM (active)

## Cc1ccc(NC(=O)CN2C(=O)N/C(=C/c3cc(C)n(-c4ccc(C(=O)O)cc4)c3C)C2=O)cc1
[2]
  IC50: 7.93 µM (active)
[3]
  IC50: 4.55 µM (active)

## Cn1c(SCC(=O)Nc2nncs2)nnc1C1CC1
[2]
  IC50: 4.69 µM (active)

## O=S1(=O)CCOC[C@H](CC2CCCCC2)N1Cc1ccccc1F
[4]
  AC50: 53.7 µM (active)

## Nc1cc(C(=O)OCC(=O)c2ccc(CC(=O)N3CCOCC3)s2)ccc1Cl
[2]
  IC50: 5.84 µM (active)

## COc1ccccc1C(=O)NNC(=S)NC(=O)c1sc2ccccc2c1Cl
[5]
  EC50: 5.31 µM (active)
Streptococcus
  EC50: 0.878 µM (active)
[6]
  EC50: 0.072 µM (active)
[1]
  IC50: 14.5 µM (active)

## Oc1ccc2c(c1)OCO2
Cytochrome P450 3A4
  AC50: 15.8 µM (inconclusive)

## C[C@@H]1CN([C@H](C)CO)S(=O)(=O)c2ccc(-c3ccc(C#N)cc3)cc2O[C@@H]1CN(C)Cc1cccc(F)c1
[7]
  AC50: 25.8 µM (active)
Paired box protein Pax-8
  AC50: 3.4 µM (active)
[8]
  AC50: 29.1 µM (active)

## CCCN1[C@H](C(=O)N2CCOCC2)[C@@H](CO)[C@@H]2Cn3c(ccc(/C=C/c4ccccc4)c3=O)[C@@H]21
[7]
  AC50: > 70 µM (inactive)
Paired box protein Pax-8
  AC50: 48.2 µM (active)

## Oc1ccccc1/C=N/Nc1ncc(Br)cn1
[9]
  CC50: > 20 µM (active)
INS1
  AC50: 2.77 µM (active)
Cells [10]
  IC50: 7.9 µM (active)
[11]
  CC50: 6.62 µM (active)
Cells [12]
  EC50: 23 µM (active)
[13]
  CC50: 3.26 µM (active)
Cells [14]
  EC50: 7.46 µM (active)

## O=C(Cn1cnc([N+](=O)[O-])n1)N/N=C/c1cc(Cl)ccc1O
Aminopeptidase N
  IC50: 13.3 µM (active)
Fatty acid synthase [15]
  IC50: 2.94 µM (active)
Cells [12]
  EC50: > 350 µM (not active)
Nonstructural protein 1
  IC50: 12.3 µM (active)
Cells [14]
  EC50: 14.5 µM (active)
Fatty acid synthase [16]
  IC50: 1.22 µM (active)

## COc1ccc(NS(=O)(=O)c2cccc(C(=O)N/N=C/c3c(F)c(F)c(F)c(F)c3F)c2)cc1
[2]
  IC50: 10.7 µM (active)

## CCOC(=O)C(Cc1ccc(O)cc1)NC(C)=O (stereo unspecified) [ACETYL TYROSINE ETHYL ESTER]
Cytochrome P450 3A4
  AC50: 25.1 µM (inconclusive)

## COc1c2c(c(CC=C(C)C)c3oc(=O)c(-c4ccc(O)cc4)c(O)c13)OC(C)(C)C=C2 [LONCHOCARPIC ACID]
Cytochrome P450 3A4
  AC50: 12.6 µM (inconclusive)

## CC(C)(C)CC(C)(C)c1ccc(OCCO)cc1 [TRITON X]
Cytochrome P450 3A4
  AC50: 31.6 µM (inconclusive)

Reference: ChEMBL document CHEMBL1201862, “PubChem BioAssay data set” (2004)
